Patent US20240148678A1, “SUSTAINED RELEASE INJECTABLE THERAPEUTIC FORMULATIONS USING APROTIC POLAR SOLVENTS” (Xeris Pharmaceuticals, Inc., priority 2022, published 2024)
“And” between values parts separate entries of the source, which are not always exact repeats. Identical values can stand only once.

What was measured:
[1] = cited from earlier work
[2] = Storage stability of levothyroxine in DMSO formulations; type: physicochemical; conditions: 5 mg/mL in DMSO without ionization stabilizing excipient; even in refrigeration
Method: These formulation studies are described in detail in U.S. Appl. No. 63/380,090, entitled “Stable Levothyroxine Formulations in Aprotic Polar Solvents,” filed on even day herewith, which is incorporated herein by reference in its entirety. […] The overall moisture content of the formulation was ˜5% when prepared using 1.0 N H2SO4. The moisture content of this formulation was due almost entirely to the added sulfuric acid (with a minor contribution from the trehalose dihydrate), which at 26 mM (from a 1.0 N (0.5 M) stock solution) results in a moisture content ˜5% (w/w). When prepared using concentrated acid (e.g., 10 N), the overall moisture content of the formulation could be reduced to about ˜1% without any significant impact on storage stability. Other exemplary formulations were prepared at a concentration of 5 mg/mL levothyroxine in DMSO that had been first acidified with about 13-15 mM sulfuric acid. These formulations were then used in levothyroxine pharmacokinetic pre-clinical studies using laboratory animals.

Row | SMILES | solubility in DMSO ([1]; DMSO) | solubility in aqueous/physiological environments ([1]; aqueous/physiological) | stability when solubilized directly in DMSO [2]
1 | CCOc1ccccc1OCCN[C@H](C)Cc1ccc(OC)c(S(N)(=O)=O)c1 [Tamsulosin, tamsulosin] | 100 mM and > 40 mg/ml | ~10 mM and 4 mg/ml | –
2 | N[C@@H](Cc1cc(I)c(Oc2cc(I)c(O)c(I)c2)c(I)c1)C(=O)O [levothyroxine] | – | – | discolor and form degradation products within one day of storage
